According to US20250381277A1, “COMPOSITIONS AND METHODS FOR TREATMENT OF NEUROLOGICAL DISORDERS” (Dana-Farber Cancer Institute, Inc., priority 2022, published 2025):
Entries after “also recorded” stand apart in the source; their conditions may differ.

Legend:
CD11c^− microglia = assay: Apoptotic neuron (AN) uptake and CD11c^- to CD11c^+ differentiation of microglia with αVβ3 / TAM receptor inhibitors; assay type: cell-based, mouse; details: P5 B6-WT CD11c^− microglia, 72 h with pHrodo-labeled ANs 1:1; cilengitide 10 μM, LDC1267 1 μM
From the text: (A) Brain single cell suspensions of 9-mo old WT mice were generated for validation of microglial CD11c expression by flow cytometry. We first gate on CD11b^+ cells from single/live cells followed by subsequent gating of CD11b^+CD45^low populations as potential microglia. […] In contrast, CCR2 but not Tmem 119 expression is detected in the CD11b^+CD45^high fraction, i.e., putative macrophage populations. Analysis of the CD11b^+CD45^low microglial population using FMO negative controls for these FACS plots confirms specificity. […] (B) The proportion of CD11c^+ microglia in C57BL/6 (B6) mice during early development and normal aging (n=3) was determined by flow cytometry analysis. CD11c^+ microglia were initially present at late embryonic day (E18.5), peaked at early postanal day (P5) and gradually declined to marginal levels in young adulthood (3-mon) followed by re-emergence and further expansion during aging. (C) CD11c^− microglia were isolated from P5 B6-WT mice by negative section with anti-CD11c magnetic beads (purity >99%) followed by co-incubation×72 h in the presence or absence of pHrodo fluorescent dye-labeled apoptotic neurons (ANs) at a 1:1 ratio. After 72 h incubation, 23% of total CD11c^− microglia had ingested ANs (AN^+), of which 77.4% of these AN^+ microglia were CD11c^+. […] Expression of CD11c was assessed in CD86^+ or MHC II^+ activated microglia. […]

[1] = test system: CD11c^+ microglia of 9-mo old 5XFAD and OPN-KO.5XFAD mice; assay: In vitro analysis of OPN-dependent inhibition of TREM2-lysosomal phagocytic pathway and Aβ degradation; assay type: cell-based, mouse; details: rmOPN 12.5 μg/ml, anti-OPN Ab 10 μg/ml
Procedure: (a) Protocol of in vitro analysis of OPN-dependent inhibition of TREM2-lysosomal phagocytic pathway in 9-mo old 5XFAD and OPN-KO.5XFAD mice. […] (d) The MFI of FAM-Aβ 1-42 after 1 h's incubation was determined by flow cytometry in lysosomes of CD11c^+ microglia (CD11c^+CD68^+) and defined as Aβ MFI1h. MFI of retained FAM-Aβ in lysosomes of CD11c^+ microglia (CD11c^+CD68^+) 24 h after FAM-Aβ1-42 withdrawal was determined and defined as Aβ MFI24h. […] All data are presented as mean±s.e.m.
To test the impact of OPN on TREM2-lysosome activation and AR degradation, microglia enriched by anti-CD11b microbeads (purity >95%, Miltenyi) from 9-mo old 5XFAD and OPN-KO.5XFAD mice were seeded into 12-well plates at 3×10^5 cells/well in conventional microglia culture medium (DMEM-F12 with 10% fetal bovine serum+10% penicillin/streptomycin+10 ng/ml recombinant mouse M-CSF). Microglia were then pre-incubated with anti-OPN Ab (10 μg/ml) for 1 h followed by the incubation with rmOPN ([…]) overnight. Then FAM-labeled Aβ1-42 peptide (1 μM) was added into culture for 1 h. Mean fluorescence intensity (MFI) of FAM-Aβ1-42 in lysosomes of CD11c^+ microglia (CD11c^+CD68^+) after 1 h's incubation was determined by flow cytometry and defined as Aβ MFI1h. FAM-Aβ1-42 was then withdrawn, and cells were cultured for 24 h in the presence or absence with anti-OPN Ab (10 μg/ml) and/or rmOPN (12.5 μg/ml) before analysis of CD11c^+ microglial expression of TREM2, CD68 and MFI of retained FAM-Aβ1-42 in CD11c^+CD68^+ microglia (defined as Aβ MFI24h) by flow cytometry. Aβ degradation rate was calculated as (Aβ MFI1h−Aβ MFI24h)/Aβ MFI1h.

Row | Compound | reduction of AN uptake by CD11c^− microglia (CD11c^− microglia) | Aβ degradation rate [(Aβ MFI1h−Aβ MFI24h)/Aβ MFI1h] in lysosomes of CD11c^+ microglia ([1]; FAM-Aβ1-42 1 μM) | CD68 expression in CD11c^+ microglia ([1]; OPN-KO.5XFAD microglia) | TREM2 expression in CD11c^+ microglia ([1]; OPN-KO.5XFAD microglia)
1 | CC(C)[C@H]1C(=O)N[C@@H](CCCN=C(N)N)C(=O)NCC(=O)N[C@@H](CC(=O)O)C(=O)N[C@H](Cc2ccccc2)C(=O)N1C [Cilengitide] | about 50% |  |  | 
2 | rmOPN: recombinant mouse OPN (osteopontin) |  | substantial reduction of Aβ degradation; also recorded: significantly reduced the Aβ degradation rate | reduced expression of CD68; also recorded: significantly reduced | sharply inhibited; also recorded: sharply reduced
